Assay results published in PubChem BioAssay (NCI).
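Each compound was tested at five concentrations against cells in 96-well plates for 48 hours. GI50 = concentration required for 50% inhibition of growth. TGI denotes the concentration required for complete inhibition of growth.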

Columns and labels:
Experiment in all cases: growth of human tumour cells (NCI), 48 h
SW-620 colon = tested on: SW-620 colon
UO-31 renal = tested on: UO-31 renal
A498 renal = tested on: A498 renal
SF-539 CNS = tested on: SF-539 CNS
SR leukemia = tested on: SR leukemia
HCT-15 colon = tested on: HCT-15 colon
MOLT-4 leukemia = tested on: MOLT-4 leukemia
U251 CNS = tested on: U251 CNS
SK-MEL-5 melanoma = tested on: SK-MEL-5 melanoma
K-562 leukemia = tested on: K-562 leukemia

| SMILES | GI50 (SW-620 colon) [µM] | TGI (SW-620 colon) [µM] | GI50 (UO-31 renal) [µM] | TGI (UO-31 renal) [µM] | GI50 (A498 renal) [µM] | TGI (A498 renal) [µM] | GI50 (SF-539 CNS) [µM] | TGI (SF-539 CNS) [µM] | GI50 (SR leukemia) [µM] | TGI (SR leukemia) [µM] | GI50 (HCT-15 colon) [µM] | TGI (HCT-15 colon) [µM] | GI50 (MOLT-4 leukemia) [µM] | TGI (MOLT-4 leukemia) [µM] | GI50 (U251 CNS) [µM] | TGI (U251 CNS) [µM] | GI50 (SK-MEL-5 melanoma) [µM] | TGI (SK-MEL-5 melanoma) [µM] | GI50 (K-562 leukemia) [µM] | TGI (K-562 leukemia) [µM] |
| --- | --- | --- | --- | --- | --- | --- | --- | --- | --- | --- | --- | --- | --- | --- | --- | --- | --- | --- | --- | --- |
| CCCCCCCCCCCCN1C(C)=CS/C1=C\C=C\c1scc(C)[n+]1CCCCCCCCCCCC | 1.71 | 7.19 | 2.4 | 12.4 | 0.822 | 4.09 | 2.02 | 8.69 | 1.12 | > 100 | 2.32 | 21.6 | 2.55 | > 100 |  |  |  |  |  |  |
| CN(C)/[N+]([O-])=N/Oc1cc(Nc2cccc(C(=O)O)c2)c([N+](=O)[O-])cc1[N+](=O)[O-] | > 100 | > 100 | > 100 | > 100 |  |  | > 100 | > 100 | 43.9 | > 100 | > 100 | > 100 | 61.4 | > 100 | 35.3 | > 100 | 81.4 | > 100 | 61.6 | > 100 |
| Oc1c(CN2CCC(N3CCOCC3)CC2)cc(Cc2cc(CN3CCC(N4CCOCC4)CC3)c(O)c3ncccc23)c2cccnc12 | 0.689 | > 100 | 0.366 | 4.48 | 3.74 | 13.9 | 1.11 | 2.9 | 0.593 | 20.5 | 0.633 | 26.4 | 0.49 | 12.1 | 0.385 | 17.6 | 1.59 | 5.11 |  |  |
| CCCN1C(=O)C/C(=C\C(C)=O)Nc2ccccc21 |  | > 100 |  | > 100 |  |  |  | > 100 |  | > 100 |  | > 100 |  | > 100 |  | > 100 |  | > 100 |  | > 100 |
| C=C1C(=O)O[C@@H]2C[C@@H]1CC[C@]1(C)O[C@H]1CC[C@@]1(C)O[C@@H]1CC[C@@]2(C)O | 29.2 | > 100 | 13.7 | 45.1 |  |  | 35.1 | > 100 | 3.49 | 31.1 | 29.2 | > 100 | 13.5 | 36.7 | 42.8 | > 100 | 14 | 34.8 | 19.5 | > 100 |
| Cc1ccc(S(=O)(=O)N/N=C(\CCN2CCCC2)CC(c2ccccc2)c2c(O)c3ccccc3oc2=O)cc1 (stereo not given) |  | > 100 |  | > 100 |  | > 100 |  | > 100 |  | > 100 |  | > 100 |  |  |  | > 100 |  | > 100 |  | > 100 |
| OCCN(CCO)N=Nc1ccc(-c2nc3ccccc3[nH]2)cc1 | 18.9 | 38.4 | 43.8 | > 100 |  |  |  |  | 20.3 | 58.2 | 21.8 | 51.2 | 14.4 | 38.5 | 17.6 | 37.4 | 20.2 | 53.4 | 24 | > 100 |
| O=C(Nc1ccc(-c2nc3cc4ccccc4cc3[nH]2)cc1)c1cccc(Br)c1 | 3.09 | 12.8 | 17.6 | 36.1 | 47.1 | > 100 | 12.9 | 26.7 | 2.34 | 8.66 | 4.12 | 42.1 | 27.6 | > 100 | 5.23 | 19 | 6.58 | 21.4 |  |  |
